Numbers after ± are expanded uncertainties.
How the values were obtained:
[1] = refractive index (Na D-line) (dimensionless); conditions: 293.15 K; 101.33 kPa; Liquid; Standard Abbe refractometry
[2] = Liquid; for mass density: 293.15 K, 101.33 kPa, Vibrating tube method; for Normal boiling temperature: Manometric method

CC(=O)O [acetic acid]
refractive index [1]: 1.3719 ± 0.0011
mass density [2]: 1044.7 ± 0.3 kg/m3
Normal boiling temperature [2]: 117.90 ± 0.4 °C

COC(=O)/C=C\C(=O)OC [dimethyl cis-butenedioate]
refractive index [1]: 1.4415 ± 0.0011
mass density [2]: 1160.8 ± 0.4 kg/m3
Normal boiling temperature [2]: 202.00 ± 1 °C

O=CO [formic acid]
refractive index [1]: 1.3709 ± 0.0011
mass density [2]: 1221.1 ± 0.4 kg/m3
Normal boiling temperature [2]: 101.00 ± 1 °C

CCC(=O)O [propanoic acid]
refractive index [1]: 1.391 ± 0.0011
mass density [2]: 988.3 ± 0.3 kg/m3
Normal boiling temperature [2]: 141.20 ± 0.4 °C

O [water]
refractive index [1]: 1.3334 ± 0.001

From the NIST ThermoML archive (doi:10.1016/j.fluid.2008.04.014)
